Laboratory results published in the supplement of paper PMC11061612.

How the values were obtained:
Experiment in all cases: combination Emax (second highest fraction inhibited in the dose matrix, 72 h); higher = more inhibition; extreme values may be limits of the assay
[1] = system: MEL-JUSO (Melanoma)
Method in brief: (§1)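 Cell lines in DMEM/F12 or RPMI with 10% FBS were plated in 1536-well plates, held 24 hours at 37°C, 5% CO2, then given two-drug dose matrices for 72 hours (DMSO typically 0.2%). Viability was read by CellTiter-Glo 2.0 luminescence and scaled as inhibition from 0 (vehicle wells) to 1 (blank wells). Combination Emax is the second-highest inhibition in the matrix; Bliss excess is observed combination effect minus expected EA + EB − EA·EB, EA and EB being single-agent effects.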

[2] = system: SU-DHL-8 (B-Cell Non-Hodgkin's Lymphoma)
Method in brief: as §1

[3] = system: CAMA-1 (Breast Carcinoma)
Method in brief: as §1

[4] = system: MS751 (Cervical Carcinoma)
Method in brief: as §1

[5] = system: KYSE-180 (Esophageal Squamous Cell Carcinoma)
Method in brief: as §1

[6] = system: PANC-08-13 (Pancreatic Carcinoma)
Method in brief: as §1

[7] = system: TOV-112D (Ovarian Carcinoma)
Method in brief: as §1

[8] = system: HL-60 (Acute Myeloid Leukemia)
Method in brief: as §1

[9] = system: TE-6 (Esophageal Squamous Cell Carcinoma)
Method in brief: as §1

[10] = system: BFTC-905 (Bladder Carcinoma)
Method in brief: as §1

[11] = system: U251 (Low Grade Glioma)
Method in brief: as §1

[12] = system: CHP-212 (Neuroblastoma)
Method in brief: as §1

[13] = system: SW1417 (Colorectal Carcinoma)
Method in brief: as §1

[14] = system: L-540 (Hodgkin's Lymphoma)
Method in brief: as §1

[15] = system: EVSA-T (Breast Carcinoma)
Method in brief: as §1

[16] = system: KARPAS-45 (T-Lymphoblastic Leukemia)
Method in brief: as §1

[17] = system: SW837 (Colorectal Carcinoma)
Method in brief: as §1

[18] = system: WIL2-NS (Non-Cancerous)
Method in brief: as §1

[19] = system: MKN28 (Gastric Carcinoma)
Method in brief: as §1

[20] = system: K-562 (Chronic Myelogenous Leukemia)
Method in brief: as §1

SMILES | combination Emax [1] | combination Emax [2] | combination Emax [3] | combination Emax [4] | combination Emax [5] | combination Emax [6] | combination Emax [7] | combination Emax [8] | combination Emax [9] | combination Emax [10] | combination Emax [11] | combination Emax [12] | combination Emax [13] | combination Emax [14] | combination Emax [15] | combination Emax [16] | combination Emax [17] | combination Emax [18] | combination Emax [19] | combination Emax [20]
CC1(C)CCC(CN2CCN(c3ccc(C(=O)NS(=O)(=O)c4ccc(NCC5CCOCC5)c([N+](=O)[O-])c4)c(Oc4cnc5[nH]ccc5c4)c3)CC2)=C(c2ccc(Cl)cc2)C1 [Venetoclax] + C1CN(CCC1(C(=O)N[C@@H](CCO)C2=CC=C(C=C2)Cl)N)C3=NC=NC4=C3C=CN4 [Capivasertib] (first compound max 1 µM, 7x7, partner max 3 µM) | 0.204 | 0.254 | 0.63 | 0.138 | 0.312 | 0.189 | 0.0882 | 0.781 | 0.503 | 0.193 | 0.303 | 0.152 | 0.193 | 0.638 | 0.855 | 0.81 | 0.127 | 0.912 | 0.255 | 0.369
CC1(C)CCC(CN2CCN(c3ccc(C(=O)NS(=O)(=O)c4ccc(NCC5CCOCC5)c([N+](=O)[O-])c4)c(Oc4cnc5[nH]ccc5c4)c3)CC2)=C(c2ccc(Cl)cc2)C1 [Venetoclax] + C=CCn1c(=O)c2cnc(Nc3ccc(N4CCN(C)CC4)cc3)nc2n1-c1cccc(C(C)(C)O)n1 [AZD1775] (first compound max 1 µM, partner max 1 µM) | 0.521 | 1 | 0.38 | 0.261 | 0.739 | 0.328 | 0.393 | 0.899 | 0.497 | 0.799 | 0.297 | 0.769 | 0.505 | 0.957 | 0.329 | 0.955 | 0.453 | 0.99 | 0.501 | 0.892
CC1(C)CCC(CN2CCN(c3ccc(C(=O)NS(=O)(=O)c4ccc(NCC5CCOCC5)c([N+](=O)[O-])c4)c(Oc4cnc5[nH]ccc5c4)c3)CC2)=C(c2ccc(Cl)cc2)C1 [Venetoclax] + CCN(CCO)CCCOc1ccc2c(Nc3cc(CC(=O)Nc4cccc(F)c4)[nH]n3)ncnc2c1 [AZD2811] (first compound max 1 µM, 7x7, partner max 1 µM) | 0.287 | 0.414 | 0.224 | 0.424 | 0.233 | 0.212 | 0.266 | 0.918 | 0.26 | 0.354 | 0.274 | 0.74 | 0.209 | 0.723 | 0.427 | 0.96 | 0.2 | 0.857 | 0.221 | 0.393
CC1(C)CCC(CN2CCN(c3ccc(C(=O)NS(=O)(=O)c4ccc(NCC5CCOCC5)c([N+](=O)[O-])c4)c(Oc4cnc5[nH]ccc5c4)c3)CC2)=C(c2ccc(Cl)cc2)C1 [Venetoclax] + CN(C)CCCOc1ccc(-c2ccc3ncc4c(c3c2)n(C2CCOCC2)c(=O)n4C)cn1 [AZD0156] (first compound max 1 µM, 7x7, partner max 1 µM) | 0.233 | 0.334 | 0.145 | 0.198 | 0.155 | 0.189 | 0.131 | 0.71 | 0.289 | 0.588 | 0.227 | 0.17 | 0.266 | 0.886 | 0.213 | 0.478 | 0.145 | 0.804 | 0.26 | 0.374
CC1(C)CCC(CN2CCN(c3ccc(C(=O)NS(=O)(=O)c4ccc(NCC5CCOCC5)c([N+](=O)[O-])c4)c(Oc4cnc5[nH]ccc5c4)c3)CC2)=C(c2ccc(Cl)cc2)C1 [Venetoclax] + COc1cc(Nc2ncc3c(n2)-c2ccc(Cl)cc2C(c2c(F)cccc2OC)=NC3)ccc1C(=O)O [Alisertib] (first compound max 1 µM, 7x7, partner max 10 µM) | 0.301 | 0.83 | 0.341 | 0.724 | 0.377 | 0.302 | 0.684 | 0.923 | 0.527 | 0.671 | 0.49 | 0.855 | 0.235 | 0.89 | 0.598 | 0.982 | 0.308 | 0.825 | 0.245 | 0.693
CC1(C)CCC(CN2CCN(c3ccc(C(=O)NS(=O)(=O)c4ccc(NCC5CCOCC5)c([N+](=O)[O-])c4)c(Oc4cnc5[nH]ccc5c4)c3)CC2)=C(c2ccc(Cl)cc2)C1 [Venetoclax] + C[C@@H]1COCCN1C2=NC(=NC(=C2)C3(CC3)[S@](=N)(=O)C)C4=C5C=CNC5=NC=C4 [AZD6738] (first compound max 1 µM, 7x7, partner max 10 µM) | 0.483 | 0.99 | 0.41 | 0.424 | 0.638 | 0.421 | 0.656 | 0.933 | 0.67 | 0.835 | 0.518 | 0.792 | 0.391 | 0.959 | 0.378 | 0.941 | 0.348 | 0.997 | 0.488 | 0.788
CC1(C)CCC(CN2CCN(c3ccc(C(=O)NS(=O)(=O)c4ccc(NCC5CCOCC5)c([N+](=O)[O-])c4)c(Oc4cnc5[nH]ccc5c4)c3)CC2)=C(c2ccc(Cl)cc2)C1 [Venetoclax] + C[C@@H](Nc1cc(F)cc(F)c1)c1cc(C(=O)N(C)C)cc2c(=O)cc(N3CCOCC3)oc12 [AZD8186] (first compound max 1 µM, 7x7, partner max 3 µM) | 0.0937 | 0.254 | 0.434 | 0.169 | 0.107 | 0.184 | 0.102 | 0.942 | 0.289 | 0.108 | 0.0464 | 0.314 | 0.172 | 0.661 | 0.79 | 0.833 | 0.0406 | 0.772 | 0.115 | 0.347
CC1(C)CCC(CN2CCN(c3ccc(C(=O)NS(=O)(=O)c4ccc(NCC5CCOCC5)c([N+](=O)[O-])c4)c(Oc4cnc5[nH]ccc5c4)c3)CC2)=C(c2ccc(Cl)cc2)C1 [Venetoclax] + Cc1cc2ncnn2cc1Nc1ncc2c(n1)n(C1CCOCC1)c(=O)n2C [AZD7648] (first compound max 1 µM, 7x7, partner max 10 µM) | 0.183 | 0.354 | 0.228 | 0.191 | 0.142 | 0.218 | 0.315 | 0.778 | 0.432 | 0.207 | 0.202 | 0.314 | 0.25 | 0.787 | 0.305 | 0.6 | 0.102 | 0.77 | 0.229 | 0.339
CC1(C)CCC(CN2CCN(c3ccc(C(=O)NS(=O)(=O)c4ccc(NCC5CCOCC5)c([N+](=O)[O-])c4)c(Oc4cnc5[nH]ccc5c4)c3)CC2)=C(c2ccc(Cl)cc2)C1 [Venetoclax] + Cn1cnc2c(F)c(Nc3ccc(Br)cc3Cl)c(C(=O)NOCCO)cc21 [Selumetinib] (first compound max 1 µM, 7x7, partner max 3 µM) | 0.305 | 0.31 | 0.0815 | 0.191 | 0.0548 | 0.184 | 0.156 | 0.937 | 0.319 | 0.454 | 0.137 | 0.878 | 0.489 | 0.493 | 0.182 | 0.317 | 0.297 | 0.87 | 0.278 | 0.414
